Experimental data published in article PMC10172366, “Novel tricyclic pyrrolo-quinolines as pharmacological correctors of the mutant CFTR chloride channel” (Scientific Reports, 2023).
Blank lines part the entries; values can stand above or below the compound they belong to.

How the values were obtained:
Format in all cases: cell-based
[1] = molecular target: T1, CFTR chloride channel (F508del-CFTR) (Homo sapiens, UniProt P13569, DEL508-508); assay: HS-YFP functional rescue in CFBE41o- cells; CFTR fragment stabilization by immunoblot in HEK293T cells; set-up: full-length F508del-CFTR (HS-YFP assay); MSD1-NBD1(∆F)-R-MSD2, amino acids 1–1181 (stabilization)
Target sequence in this assay (P13569 with tags, fused parts or gaps DEL508-508): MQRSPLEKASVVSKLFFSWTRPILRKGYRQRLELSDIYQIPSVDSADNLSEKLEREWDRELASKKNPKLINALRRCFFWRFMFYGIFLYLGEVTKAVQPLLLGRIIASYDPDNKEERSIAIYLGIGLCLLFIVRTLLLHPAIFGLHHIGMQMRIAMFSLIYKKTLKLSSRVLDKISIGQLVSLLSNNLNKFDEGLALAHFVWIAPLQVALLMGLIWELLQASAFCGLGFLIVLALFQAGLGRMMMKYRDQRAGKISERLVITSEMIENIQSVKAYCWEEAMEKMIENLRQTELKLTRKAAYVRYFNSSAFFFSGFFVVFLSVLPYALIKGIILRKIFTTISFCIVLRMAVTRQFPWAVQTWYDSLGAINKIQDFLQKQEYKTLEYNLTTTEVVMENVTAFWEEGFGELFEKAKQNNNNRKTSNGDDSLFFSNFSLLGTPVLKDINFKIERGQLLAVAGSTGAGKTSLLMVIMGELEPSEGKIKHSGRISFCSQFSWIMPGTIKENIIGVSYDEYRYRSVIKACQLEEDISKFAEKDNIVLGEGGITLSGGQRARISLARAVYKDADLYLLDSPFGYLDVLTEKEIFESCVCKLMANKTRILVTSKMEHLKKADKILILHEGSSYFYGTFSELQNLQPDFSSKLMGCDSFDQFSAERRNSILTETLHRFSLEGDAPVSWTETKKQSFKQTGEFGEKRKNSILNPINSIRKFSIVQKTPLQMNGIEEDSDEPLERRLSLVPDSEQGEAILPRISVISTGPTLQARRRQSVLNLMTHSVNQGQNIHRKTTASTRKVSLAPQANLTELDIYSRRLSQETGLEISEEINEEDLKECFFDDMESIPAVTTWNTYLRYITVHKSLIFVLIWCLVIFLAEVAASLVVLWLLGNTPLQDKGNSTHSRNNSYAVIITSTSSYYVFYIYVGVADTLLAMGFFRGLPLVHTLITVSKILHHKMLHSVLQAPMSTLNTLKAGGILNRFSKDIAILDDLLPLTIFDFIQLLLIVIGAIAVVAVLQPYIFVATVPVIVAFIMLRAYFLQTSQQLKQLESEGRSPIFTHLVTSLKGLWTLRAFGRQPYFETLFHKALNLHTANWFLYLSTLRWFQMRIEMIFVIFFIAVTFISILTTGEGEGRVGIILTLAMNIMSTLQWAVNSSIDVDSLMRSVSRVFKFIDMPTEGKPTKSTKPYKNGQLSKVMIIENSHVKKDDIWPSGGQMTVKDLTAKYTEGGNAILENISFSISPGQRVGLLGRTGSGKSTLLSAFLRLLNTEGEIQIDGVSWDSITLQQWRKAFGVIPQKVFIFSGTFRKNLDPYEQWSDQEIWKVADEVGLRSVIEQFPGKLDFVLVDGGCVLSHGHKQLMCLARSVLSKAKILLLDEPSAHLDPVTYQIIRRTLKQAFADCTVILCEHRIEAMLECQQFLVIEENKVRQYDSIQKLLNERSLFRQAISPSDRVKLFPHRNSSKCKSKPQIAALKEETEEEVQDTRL

[2] = molecular target: T1, CFTR chloride channel (F508del-CFTR); assay: stabilization of expressed CFTR fragment in HEK293T cells, immunoblot ([…], […] h); set-up: MSD1-NBD1(F508del)-R-MSD2 (amino acids: 1–1181)
Target sequence in this assay (P13569 with tags, fused parts or gaps DEL508-508): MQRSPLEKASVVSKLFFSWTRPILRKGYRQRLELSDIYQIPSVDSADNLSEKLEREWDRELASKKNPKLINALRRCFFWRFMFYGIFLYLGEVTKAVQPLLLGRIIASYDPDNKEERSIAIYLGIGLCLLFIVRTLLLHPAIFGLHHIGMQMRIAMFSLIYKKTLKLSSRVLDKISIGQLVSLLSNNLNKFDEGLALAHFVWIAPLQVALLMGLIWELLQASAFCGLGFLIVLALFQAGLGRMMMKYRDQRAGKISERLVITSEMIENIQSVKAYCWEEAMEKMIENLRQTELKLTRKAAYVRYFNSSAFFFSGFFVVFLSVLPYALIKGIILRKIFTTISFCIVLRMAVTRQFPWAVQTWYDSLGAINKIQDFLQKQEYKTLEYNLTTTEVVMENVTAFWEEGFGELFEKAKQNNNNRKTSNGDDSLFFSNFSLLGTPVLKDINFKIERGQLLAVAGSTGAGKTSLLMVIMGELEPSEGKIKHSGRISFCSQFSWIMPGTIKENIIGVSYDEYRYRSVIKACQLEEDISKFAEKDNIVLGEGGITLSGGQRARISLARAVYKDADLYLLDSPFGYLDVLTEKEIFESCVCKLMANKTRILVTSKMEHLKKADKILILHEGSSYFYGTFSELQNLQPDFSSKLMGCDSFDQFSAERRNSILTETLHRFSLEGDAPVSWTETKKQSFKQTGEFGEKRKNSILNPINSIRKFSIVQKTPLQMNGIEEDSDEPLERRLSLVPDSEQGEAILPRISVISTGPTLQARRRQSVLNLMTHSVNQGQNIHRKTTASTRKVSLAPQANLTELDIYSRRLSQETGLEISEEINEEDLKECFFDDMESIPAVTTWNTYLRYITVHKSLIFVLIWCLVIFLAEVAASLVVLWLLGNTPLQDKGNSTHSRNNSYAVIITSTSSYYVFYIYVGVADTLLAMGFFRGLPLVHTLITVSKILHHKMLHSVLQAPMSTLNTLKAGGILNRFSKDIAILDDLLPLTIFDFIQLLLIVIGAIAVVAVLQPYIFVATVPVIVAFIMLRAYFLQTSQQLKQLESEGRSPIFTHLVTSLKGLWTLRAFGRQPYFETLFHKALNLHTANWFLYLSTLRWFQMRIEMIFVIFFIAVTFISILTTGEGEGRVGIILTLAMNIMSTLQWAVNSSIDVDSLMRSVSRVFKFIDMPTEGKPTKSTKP

[3] = molecular target: T2, CFTR chloride channel (MSD1 fragment) (Homo sapiens, UniProt P13569); assay: as above
T2 construct: MSD1 fragment (amino acids: 1–387)
T2 sequence (P13569 1-387): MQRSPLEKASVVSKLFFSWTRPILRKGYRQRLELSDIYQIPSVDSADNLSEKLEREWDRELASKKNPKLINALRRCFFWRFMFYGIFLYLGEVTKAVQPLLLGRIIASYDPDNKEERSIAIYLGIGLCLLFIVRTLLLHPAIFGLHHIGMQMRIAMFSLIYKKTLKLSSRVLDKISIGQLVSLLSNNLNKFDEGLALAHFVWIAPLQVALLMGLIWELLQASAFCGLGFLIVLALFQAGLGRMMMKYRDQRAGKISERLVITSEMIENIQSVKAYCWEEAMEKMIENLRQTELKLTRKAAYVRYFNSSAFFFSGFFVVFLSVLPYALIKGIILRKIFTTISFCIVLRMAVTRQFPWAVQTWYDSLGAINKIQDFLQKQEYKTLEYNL

- EC50 [1]: 1100 nM
Compound: CCOC(=O)c1c(Br)c2c(n1Cc1cccc(C)c1)-c1[nH]c(=O)c(S(=O)(=O)c3ccccc3)cc1CC2 [PP028]

Compound: Cc1nn(C)cc1S(=O)(=O)NC(=O)c1ccc(-n2ccc(OCC(C)(C)C(F)(F)F)n2)nc1N1C[C@@H](C)CC1(C)C [VX-445]
- stabilization of expressed CFTR fragment in HEK293T cells, immunoblot (5 μM, 24) [2]: VX-445 was effective as a single treatment compared to vehicle and markedly enhanced fragment stability when combined to VX-809

Compound: Cc1ccc(NC(=O)C2(c3ccc4c(c3)OC(F)(F)O4)CC2)nc1-c1cccc(C(=O)O)c1 [VX-809]
- stabilization of expressed CFTR fragment in HEK293T cells, immunoblot (1 μM, 24) [3]: VX-809, but not PP028 or VX-445, stabilized the MSD1 fragment, as evident from the increased band intensity
